From PubChem BioAssay AID2060484 (Molecular Pharmacology Branch, DTP, NCI, 2025)

Test system: SUM149PT spheroids with HUVEC/MSC, viability
Assay: Anticancer human tumor SUM149PT cell line growth inhibition [GQUAD];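 note: spheroids exposed to drugs for seven days before readout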;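 for viability, T/C: percent viability relative to DMSO vehicle control taken as 100%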
Conditions: for IC50: curve of first compound; for viability, T/C: stronger effect = lower value
Text: DNA G-quadruplex Stabilizer Agents in Combinations in Complex Spheroids
A high-throughput screen of multi-cell type tumor spheroids was designed to identify active combinations of DNA G-quadruplex stabilizer agents and targeted small molecules. Complex spheroids include a stromal component modeled by human endothelial cells (HUVEC) and fibroblasts modeled by human mesenchymal stem cells (MSCs). The concentration ranges selected for each drug and investigational agent were based upon clinically achievable concentrations if the clinical Cmax of the agent was known.
Compounds. The drugs and investigational agents: pidnarulex (CX-5461; NSC782164), APTO-253 (NSC789042), BRACO-19 (NSC847499), peposertib (NSC802822), ceralasertib (NSC780249), elimusertib (NSC800525), camonsertib (NSC841442), AZD-1390 (NSC803789), olaparib (NSC753686), talazoparib (NSC767125), ART-558 (NSC835418), sotorasib (NSC818433), MRTX-1133 (NSC836407), SN-38 (NSC673596), topotecan (NSC609699), etoposide (NSC141540), doxorubicin (NSC123127), gemcitabine (NSC613327), 5-fluorouracil (NSC19893), paclitaxel (NSC125973), vemurafenib (NSC761431), panobinostat (NSC761190), R-306465 (JNJ-16241199; NSC773264), adavosertib (NSC754352), TP-3654 (NSC805149), carboplatin (NSC241240), KSQ-4279 (NSC840948), and staurosporine (NSC755774) were obtained from the National Cancer Institute (NCI) Developmental Therapeutics Program Chemical Repository (34). The FDA-approved anticancer drug set is available from the NCI Developmental Therapeutics Program. […] The stock solutions were prepared in dimethyl sulfoxide (DMSO, Sigma-Aldrich, St. Louis, MO, cat. D2650) at 800-fold the tested concentration and stored at -70 degrees C prior to their use. All drugs and investigational agents were tested over a range starting from a high concentration at or near the clinical Cmax and decreasing in half-log increments. If the clinical Cmax for an agent had not been determined, the highest concentration tested was 10 microM.
2.3 Cell Culture. All cells were maintained in an incubator at 37 degrees C and 5% CO2 with 95% humidity. The PDC lines were cultured according to standard operating procedures established by the NCI PDMR. All PDCs were thawed and cultured in Matrigel-coated flasks prepared with a working solution of 1X Ham's F-12 nutrient mix, without supplementation (Invitrogen, cat. 11765054), 100 U/mL penicillin-streptomycin (Invitrogen, cat. 15140122), and 2.5% Matrigel (Corning Inc., cat. 354248) for the first three passages. The 857933-349-R-J2-PDC line was cultured in 6C/Colon 1B media, which includes advanced DMEM/F-12 (Thermo Fisher Scientific, cat. 12634028), 10 mM HEPES (Thermo Fisher Scientific, cat. 15630080), 1X GlutaMAX supplement (Thermo Fisher Scientific, cat. 35050061), 0.1 mg/mL primocin (InvivoGen, cat. ant-pm-2), 10% defined fetal bovine serum, heat inactivated (HyClone Laboratories Inc., cat. SH30070.03HI), 50% L-WRN conditioned media (ATCC, cat. CRL-3276), 1.25 mM N-Acetyl-L-cysteine (Sigma-Aldrich, cat. A9165), 10 mM nicotinamide (Sigma-Aldrich, cat. N0636), 1X B-27 supplement (Thermo Fisher Scientific, cat. 17504044), 1X N-2 supplement (Thermo Fisher Scientific, cat. 17502048), 10 microM Y-27632 dihydrochloride (Tocris Bioscience, cat. 1254), and 50 ng/mL human EGF recombinant protein (Thermo Fisher Scientific, cat. PHG0311). The 485176-168-R4-J1-PDC line was cultured in Panc media, which includes all 6C/Colon 1B media components plus 100 ng/mL human FGF-10 (Thermo Fisher Scientific, cat. 100-26), 500 nM SB-431542 (Selleckchem, cat. S1067), and gastrin (Tocris, cat. 3006).
[…]

[1] = second compound 0.0316 µM, first compound 0.0316 µM
[2] = second compound 0.0316 µM, first compound 0.316 µM
[3] = second compound 0.1 µM, first compound 0.0316 µM
[4] = second compound 0.1 µM, first compound 0.316 µM
[5] = second compound 0.316 µM, first compound 0.0316 µM
[6] = second compound 0.316 µM, first compound 0.316 µM
[7] = second compound 1 µM, first compound 0.0316 µM
[8] = second compound 1 µM, first compound 0.316 µM
[9] = second compound 3.16 µM, first compound 0.0316 µM
[10] = second compound 3.16 µM, first compound 0.316 µM
[11] = second compound 10 µM, first compound 0.0316 µM
[12] = second compound 10 µM, first compound 0.316 µM

## C#Cc1c(F)ccc2cc(O)cc(-c3ncc4c(N5CC6CCC(C5)N6)nc(OCC56CCCN5CC(F)C6)nc4c3F)c12 (centres undefined) + Cc1cnc(CNC(=O)c2c(=O)c3ccc(N4CCCN(C)CC4)nc3n3c2sc2ccccc23)cn1
Second compound 0.0316 µM
  IC50: 545 nM
Second compound 0.1 µM
  IC50: 243 nM
Second compound 0.316 µM
  IC50: 42.2 nM
Second compound 1 µM
  IC50: < 31.6 nM
Second compound 3.16 µM
  IC50: < 31.6 nM
Second compound 10 µM
  IC50: < 31.6 nM
[1]
  viability, T/C: 90.1%
Second compound 0.0316 µM, first compound 0.1 µM
  viability, T/C: 65.5%
[2]
  viability, T/C: 66.2%
Second compound 0.0316 µM, first compound 1 µM
  viability, T/C: 35.1%
Second compound 0.0316 µM, first compound 3.16 µM
  viability, T/C: 36.6%
Second compound 0.0316 µM, first compound 10 µM
  viability, T/C: 29%
[3]
  viability, T/C: 51.6%
Second compound 0.1 µM, first compound 0.1 µM
  viability, T/C: 61.4%
[4]
  viability, T/C: 45.2%
Second compound 0.1 µM, first compound 1 µM
  viability, T/C: 38.9%
Second compound 0.1 µM, first compound 3.16 µM
  viability, T/C: 30.7%
Second compound 0.1 µM, first compound 10 µM
  viability, T/C: 25.5%
[5]
  viability, T/C: 48.6%
Second compound 0.316 µM, first compound 0.1 µM
  viability, T/C: 52.2%
[6]
  viability, T/C: 37.9%
Second compound 0.316 µM, first compound 1 µM
  viability, T/C: 34.1%
Second compound 0.316 µM, first compound 3.16 µM
  viability, T/C: 28.1%
Second compound 0.316 µM, first compound 10 µM
  viability, T/C: 22.9%
[7]
  viability, T/C: 34.1%
Second compound 1 µM, first compound 0.1 µM
  viability, T/C: 38.6%
[8]
  viability, T/C: 33.4%
Second compound 1 µM, first compound 1 µM
  viability, T/C: 27.1%
Second compound 1 µM, first compound 3.16 µM
  viability, T/C: 24.2%
Second compound 1 µM, first compound 10 µM
  viability, T/C: 20.1%
[9]
  viability, T/C: 35.5%
Second compound 3.16 µM, first compound 0.1 µM
  viability, T/C: 32.1%
[10]
  viability, T/C: 31.4%
Second compound 3.16 µM, first compound 1 µM
  viability, T/C: 25.6%
Second compound 3.16 µM, first compound 3.16 µM
  viability, T/C: 23.3%
Second compound 3.16 µM, first compound 10 µM
  viability, T/C: 19.6%
[11]
  viability, T/C: 0.13%
Second compound 10 µM, first compound 0.1 µM
  viability, T/C: 2.68%
[12]
  viability, T/C: 11.3%
Second compound 10 µM, first compound 1 µM
  viability, T/C: 0.63%
Second compound 10 µM, first compound 3.16 µM
  viability, T/C: 2.15%
Second compound 10 µM, first compound 10 µM
  viability, T/C: 0.92%

## Cc1[nH]c2ccccc2c1CCNCc1ccc(/C=C/C(=O)NO)cc1 + Cc1cnc(CNC(=O)c2c(=O)c3ccc(N4CCCN(C)CC4)nc3n3c2sc2ccccc23)cn1
Second compound 0.0316 µM
  IC50: 131 nM
Second compound 0.1 µM
  IC50: 100 nM
Second compound 0.316 µM
  IC50: 56 nM
Second compound 1 µM
  IC50: < 0.999 nM
Second compound 3.16 µM
  IC50: < 0.999 nM
Second compound 10 µM
  IC50: < 0.999 nM
Second compound 0.0316 µM, first compound 0.000999 µM
  viability, T/C: 106%
Second compound 0.0316 µM, first compound 0.00316 µM
  viability, T/C: 86.2%
Second compound 0.0316 µM, first compound 0.00999 µM
  viability, T/C: 90%
[1]
  viability, T/C: 89.5%
Second compound 0.0316 µM, first compound 0.0999 µM
  viability, T/C: 56%
[2]
  viability, T/C: 29.8%
Second compound 0.1 µM, first compound 0.000999 µM
  viability, T/C: 66.2%
Second compound 0.1 µM, first compound 0.00316 µM
  viability, T/C: 62.1%
Second compound 0.1 µM, first compound 0.00999 µM
  viability, T/C: 67.7%
[3]
  viability, T/C: 65.2%
Second compound 0.1 µM, first compound 0.0999 µM
  viability, T/C: 50.1%
[4]
  viability, T/C: 26.9%
Second compound 0.316 µM, first compound 0.000999 µM
  viability, T/C: 54.2%
Second compound 0.316 µM, first compound 0.00316 µM
  viability, T/C: 55.2%
Second compound 0.316 µM, first compound 0.00999 µM
  viability, T/C: 55.3%
[5]
  viability, T/C: 54.9%
Second compound 0.316 µM, first compound 0.0999 µM
  viability, T/C: 45.7%
[6]
  viability, T/C: 25%
Second compound 1 µM, first compound 0.000999 µM
  viability, T/C: 51.1%
Second compound 1 µM, first compound 0.00316 µM
  viability, T/C: 43.2%
Second compound 1 µM, first compound 0.00999 µM
  viability, T/C: 48.5%
[7]
  viability, T/C: 47.7%
Second compound 1 µM, first compound 0.0999 µM
  viability, T/C: 46.2%
[8]
  viability, T/C: 20.2%
Second compound 3.16 µM, first compound 0.000999 µM
  viability, T/C: 39.1%
Second compound 3.16 µM, first compound 0.00316 µM
  viability, T/C: 40.3%
Second compound 3.16 µM, first compound 0.00999 µM
  viability, T/C: 39.1%
[9]
  viability, T/C: 42.6%
Second compound 3.16 µM, first compound 0.0999 µM
  viability, T/C: 37.9%
[10]
  viability, T/C: 17.8%
Second compound 10 µM, first compound 0.000999 µM
  viability, T/C: 0.24%
Second compound 10 µM, first compound 0.00316 µM
  viability, T/C: 1.67%
Second compound 10 µM, first compound 0.00999 µM
  viability, T/C: 9.84%
[11]
  viability, T/C: 10.1%
Second compound 10 µM, first compound 0.0999 µM
  viability, T/C: 2.55%
[12]
  viability, T/C: 2%
